Measurements reported in PubChem BioAssay (NCI).
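1) Cells in 96-well plates. 2) Compound, 48 h, 5 concentrations. 3) Linear interpolation between surrounding doses. 4) Unreached endpoint = highest concentration. TGI: total growth inhibition.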

Experiments:
Test in all cases: DTP human tumour cell line panel, 48 h
[1] = tested on: SNB-78 CNS
[2] = tested on: SK-MEL-2 melanoma
[3] = tested on: SK-OV-3 ovarian
[4] = tested on: NCI-H522 lung
[5] = tested on: RPMI-8226 leukemia
[6] = tested on: SK-MEL-5 melanoma
[7] = tested on: SF-268 CNS
[8] = tested on: KM20L2 colon
[9] = tested on: HCT-15 colon
[10] = tested on: OVCAR-5 ovarian
[11] = tested on: RXF 393 renal
[12] = tested on: CCRF-CEM leukemia
[13] = tested on: OVCAR-8 ovarian
[14] = tested on: UO-31 renal
[15] = tested on: SF-295 CNS
[16] = tested on: MALME-3M melanoma
[17] = tested on: IGROV1 ovarian
[18] = tested on: SNB-75 CNS
[19] = tested on: KM12 colon
[20] = tested on: COLO 205 colon
[21] = tested on: MOLT-4 leukemia
[22] = tested on: HOP-18 NSCLC
[23] = tested on: HCC-2998 colon
[24] = tested on: ACHN renal
[25] = tested on: LXFL 529 NSCLC
[26] = tested on: M14 melanoma
[27] = tested on: UACC-62 melanoma
[28] = tested on: SF-539 CNS
[29] = tested on: HOP-62 NSCLC
[30] = tested on: U251 CNS
[31] = tested on: K-562 leukemia
[32] = tested on: A549 NSCLC
[33] = tested on: TK-10 renal
[34] = tested on: NCI-H23 lung
[35] = tested on: DMS 114 small cell lung
[36] = tested on: HCT-116 colon
[37] = tested on: LOX IMVI melanoma
[38] = tested on: HT29 colon
[39] = tested on: M19-MEL melanoma
[40] = tested on: NCI-H226 lung
[41] = tested on: OVCAR-3 ovarian
[42] = tested on: NCI-H460 lung
[43] = tested on: UACC-257 melanoma
[44] = tested on: SN12C renal
[45] = tested on: OVCAR-4 ovarian
[46] = tested on: HL-60(TB) leukemia
[47] = tested on: DLD-1 colon
[48] = tested on: SK-MEL-28 melanoma
[49] = tested on: 786-0 renal
[50] = tested on: DMS 273 small cell lung
[51] = tested on: EKVX NSCLC
[52] = tested on: MDA-MB-231 breast
[53] = tested on: T-47D breast
[54] = tested on: MDA-N
[55] = tested on: HOP-92 NSCLC
[56] = tested on: NCI/ADR-RES ovarian
[57] = tested on: BT-549 breast
[58] = tested on: MDA-MB-435
[59] = tested on: HS 578T breast
[60] = tested on: SR leukemia
[61] = tested on: PC-3 prostate
[62] = tested on: CAKI-1 renal
[63] = tested on: A498 renal
[64] = tested on: SW-620 colon
[65] = tested on: SNB-19 CNS
[66] = tested on: DU-145 prostate
[67] = tested on: MCF7 breast

Structure (SMILES): O=C(CSc1nnc(Cc2ccccc2)o1)Nc1cccc([N+](=O)[O-])c1
- TGI [1]: > 100 µM
- TGI [2]: > 100 µM
- TGI [3]: > 100 µM
- TGI [4]: > 100 µM
- TGI [5]: > 100 µM
- TGI [6]: > 100 µM
- TGI [7]: > 100 µM
- TGI [8]: > 100 µM
- TGI [9]: > 100 µM
- TGI [10]: > 100 µM
- TGI [11]: > 100 µM
- TGI [12]: > 100 µM
- TGI [13]: > 100 µM
- TGI [14]: > 100 µM
- TGI [15]: > 100 µM
- TGI [16]: > 100 µM
- TGI [17]: > 100 µM
- TGI [18]: > 100 µM
- TGI [19]: > 100 µM
- TGI [20]: > 100 µM
- TGI [21]: > 100 µM
- TGI [22]: > 100 µM
- TGI [23]: > 100 µM
- TGI [24]: > 100 µM
- TGI [25]: > 100 µM
- TGI [26]: > 100 µM
- TGI [27]: > 100 µM
- TGI [28]: > 100 µM
- TGI [29]: > 100 µM
- TGI [30]: > 100 µM
- TGI [31]: > 100 µM
- TGI [32]: > 100 µM
- TGI [33]: > 100 µM
- TGI [34]: > 100 µM
- TGI [35]: > 100 µM
- TGI [36]: > 100 µM
- TGI [37]: > 100 µM
- TGI [38]: > 100 µM
- TGI [39]: > 100 µM
- TGI [40]: > 100 µM
- TGI [41]: > 100 µM
- TGI [42]: > 100 µM
- TGI [43]: > 100 µM
- TGI [44]: > 100 µM
- TGI [45]: > 100 µM
- TGI [46]: > 100 µM
- TGI [47]: > 100 µM
- TGI [48]: > 100 µM
- TGI [49]: > 100 µM
- TGI [50]: > 100 µM

Structure (SMILES): c1ccc2c(c1)nc1n2CNCC1
- TGI [2]: > 100 µM
- TGI [3]: > 100 µM
- TGI [4]: > 100 µM
- TGI [51]: > 100 µM
- TGI [5]: > 100 µM
- TGI [6]: > 100 µM
- TGI [7]: > 100 µM
- TGI [52]: > 100 µM
- TGI [9]: > 100 µM
- TGI [10]: > 100 µM
- TGI [11]: > 100 µM
- TGI [53]: > 100 µM
- TGI [54]: > 100 µM
- TGI [13]: > 100 µM
- TGI [55]: > 100 µM
- TGI [14]: > 100 µM
- TGI [56]: > 100 µM
- TGI [15]: > 100 µM
- TGI [16]: > 100 µM
- TGI [17]: > 100 µM
- TGI [18]: > 100 µM
- TGI [19]: > 100 µM
- TGI [20]: > 100 µM
- TGI [21]: > 100 µM
- TGI [23]: > 100 µM
- TGI [57]: > 100 µM
- TGI [24]: > 100 µM
- TGI [58]: > 100 µM
- TGI [26]: > 100 µM
- TGI [27]: > 100 µM
- TGI [59]: > 100 µM
- TGI [28]: > 100 µM
- TGI [29]: > 100 µM
- TGI [30]: > 100 µM
- TGI [60]: > 100 µM
- TGI [32]: > 100 µM
- TGI [61]: > 100 µM
- TGI [62]: > 100 µM
- TGI [63]: > 100 µM
- TGI [33]: > 100 µM
- TGI [34]: > 100 µM
- TGI [36]: > 100 µM
- TGI [37]: 73.3 µM
- TGI [64]: > 100 µM
- TGI [38]: > 100 µM
- TGI [65]: > 100 µM
- TGI [40]: > 100 µM
- TGI [66]: > 100 µM
- TGI [41]: > 100 µM
- TGI [42]: > 100 µM
- TGI [43]: > 100 µM
- TGI [44]: > 100 µM
- TGI [45]: > 100 µM
- TGI [46]: > 100 µM
- TGI [67]: > 100 µM
- TGI [48]: > 100 µM
- TGI [49]: > 100 µM

Structure (SMILES): CC/C(=N/O)c1ccc(Br)s1
- TGI [2]: > 100 µM
- TGI [3]: > 100 µM
- TGI [4]: > 100 µM
- TGI [51]: > 100 µM
- TGI [6]: > 100 µM
- TGI [7]: > 100 µM
- TGI [52]: > 100 µM
- TGI [9]: > 100 µM
- TGI [10]: > 100 µM
- TGI [11]: > 100 µM
- TGI [53]: > 100 µM
- TGI [54]: > 100 µM
- TGI [12]: 97.1 µM
- TGI [13]: > 100 µM
- TGI [55]: > 100 µM
- TGI [14]: > 100 µM
- TGI [56]: > 100 µM
- TGI [15]: > 100 µM
- TGI [16]: > 100 µM
- TGI [17]: > 100 µM
- TGI [18]: > 100 µM
- TGI [19]: > 100 µM
- TGI [20]: > 100 µM
- TGI [21]: > 100 µM
- TGI [23]: > 100 µM
- TGI [57]: > 100 µM
- TGI [24]: > 100 µM
- TGI [58]: > 100 µM
- TGI [26]: > 100 µM
- TGI [27]: > 100 µM
- TGI [59]: > 100 µM
- TGI [28]: > 100 µM
- TGI [29]: > 100 µM
- TGI [30]: > 100 µM
- TGI [31]: > 100 µM
- TGI [60]: > 100 µM
- TGI [32]: > 100 µM
- TGI [61]: > 100 µM
- TGI [62]: > 100 µM
- TGI [63]: > 100 µM
- TGI [33]: > 100 µM
- TGI [34]: > 100 µM
- TGI [36]: > 100 µM
- TGI [37]: > 100 µM
- TGI [64]: > 100 µM
- TGI [38]: > 100 µM
- TGI [65]: > 100 µM
- TGI [40]: > 100 µM
- TGI [66]: > 100 µM
- TGI [41]: > 100 µM
- TGI [42]: > 100 µM
- TGI [43]: > 100 µM
- TGI [44]: > 100 µM
- TGI [45]: > 100 µM
- TGI [46]: > 100 µM
- TGI [67]: > 100 µM
- TGI [48]: > 100 µM
- TGI [49]: > 100 µM

Structure (SMILES): Oc1ccc2ccccc2c1N=Nc1ccc(F)cc1
- TGI [2]: > 100 µM
- TGI [3]: > 100 µM
- TGI [4]: > 100 µM
- TGI [5]: > 100 µM
- TGI [6]: > 100 µM
- TGI [7]: > 100 µM
- TGI [8]: > 100 µM
- TGI [9]: > 100 µM
- TGI [10]: > 100 µM
- TGI [11]: > 100 µM
- TGI [12]: > 100 µM
- TGI [13]: > 100 µM
- TGI [55]: > 100 µM
- TGI [14]: > 100 µM
- TGI [15]: > 100 µM
- TGI [16]: > 100 µM
- TGI [17]: > 100 µM
- TGI [18]: > 100 µM
- TGI [19]: > 100 µM
- TGI [20]: > 100 µM
- TGI [21]: > 100 µM
- TGI [22]: > 100 µM
- TGI [23]: > 100 µM
- TGI [24]: > 100 µM
- TGI [25]: > 100 µM
- TGI [26]: > 100 µM
- TGI [27]: > 100 µM
- TGI [28]: > 100 µM
- TGI [29]: > 100 µM
- TGI [30]: > 100 µM
- TGI [31]: > 100 µM
- TGI [60]: > 100 µM
- TGI [32]: > 100 µM
- TGI [62]: > 100 µM
- TGI [63]: > 100 µM
- TGI [33]: > 100 µM
- TGI [34]: > 100 µM
- TGI [35]: > 100 µM
- TGI [36]: > 100 µM
- TGI [37]: > 100 µM
- TGI [64]: > 100 µM
- TGI [38]: > 100 µM
- TGI [65]: > 100 µM
- TGI [39]: > 100 µM
- TGI [41]: > 100 µM
- TGI [42]: > 100 µM
- TGI [44]: > 100 µM
- TGI [45]: > 100 µM
- TGI [46]: > 100 µM
- TGI [48]: > 100 µM
- TGI [49]: > 100 µM
- TGI [50]: > 100 µM
